According to patent US10440975B2, “Feed additive composition for reducing methane gas produced by ruminant animals” (CJ CHEILJEDANG CORPORATION, priority 2014, dated 2019):

Tested on: rumen fluid
Test: Rumen simulation continuous culture system (RSCC): methane production, pH, digestibility
Assay type: cell-based
Settings: vs control group
Method: 0.12 mL of a micromineral solution was added to 250 mL of distilled water in an 2 L of Erlenmeyer flask and stirred. Another 250 mL of distilled water was added, and then stirred for 20 minutes. Then, 250 mL of an in vitro buffer solution was added and stirred for 10 minutes. Then, 250 mL of a macromineral solution was added and stirred for 15 minutes. Then, 1.25 mL of a resazurin solution was added to the mixture and stirred. Then, the flask was sealed with aluminum foil and heated while maintaining an anaerobic condition by bubbling CO2 gas in a Hungate anaerobic culture tube. When the solution started boiling, the solution was heated for 10 more minutes and then cooled down. 50 mL of a reduction solution was added to the cooled solution to obtain a buffer.
A sampled rumen fluid was first filtered through eight-layer gauze and then through glass wool. The filtered rumen fluid was maintained in an anaerobic condition by CO2 bubbling. While maintaining the anaerobic condition by CO2 bubbling, the buffer solution prepared in 1) above was mixed with the rumen fluid (250 mL of the rumen fluid, 600 mL of the buffer solution).
10 g of a substrate was added to a fermenter. The buffer solution prepared in 1) was added into a buffer bag while maintaining the anaerobic condition. A Tedlar bag filled with CO2 gas was connected to the buffer bag, and a tube connected to the buffer bag was connected to a buffer inlet port of the fermenter lid. Then a tube connected to a gas collecting bag was connected to a gas collecting port of the fermenter lid (a tube for gas was used). A pH probe and a temperature probe were placed deep enough to reach the culture medium while not touching the impellers. In the meantime, a feed inlet tube was placed deep enough to reach the culture medium through the feeding port of the fermenter lid. The fermenter lid was then connected to the fermenter and an anaerobic condition inside the fermenter was maintained by using vacuum grease and Teflon tape. CO2 gas was introduced into the fermenter through the gas collecting port for about 10 minutes (making the inside of the fermenter anaerobic, continuously introducing CO2 gas until the initiation of cultivation). All joint connections were sealed with vacuum grease and Teflon tape. Once all devices were installed, a peristaltic pump was activated and the buffer solution was introduced into the fermenter. The anaerobic culture medium was introduced into the fermenter until it overflowed, and then the CO2 gas introduction into the fermenter was discontinued and all inlet ports were sealed. The fermenter was then connected to a circulator, and cultivation started at 39° C. with a stirring speed between 99 rpm and 102 rpm. The pH of the culture medium of the fermenter was between 6.8 and 7.1, and a temperature was maintained at between 39° C. and 40° C. A turnover rate of the culture medium was stabilized at 0.042 h^−1 while a turnover rate of the substrate was stabilized at 0.017 h^−1.
Below is an experiment on reduction of methane production conducted in accordance with the above operation method using the RSCC system of 3) of Preparation Example. A feed additive for reducing methane was added with the substrate when the substrate was added.
The RSCC system was operated for five days of adjustment, and then total gas production, methane production, and pH values of the control group were measured for three days. After the measurements of the control group were completed, DADS was added at ratios of 0.1 wt %, 0.2 wt %, and 0.4 wt % per 10 g of a substrate, and then total gas production, methane production, and pH values were measured at the same time for another three days. The methane reduction rate was measured after having an adjustment period with a newly sampled rumen fluid every time one additive examines.

[1] = additive 0.1 wt % per 10 g of substrate
[2] = additive 0.5 wt % per 10 g of substrate

Molecule: COc1ccc2cc3[n+](cc2c1OC)CCc1cc2c(cc1-3)OCO2 [Berberine, 5,6-dihydro-9,10-dimethoxybenzo[g]-1,3-benzodioxolo[5,6-a]quinolizinium]
- Methane Reduction (%) [1]: 6.7%
- Methane Reduction (%) (additive 0.2 wt % per 10 g of substrate): 12.4%
- Methane Reduction (%) [2]: 45.5%

Molecule: C=CCSSCC=C [DADS, 4,5-dithia-1,7-octadiene diallyldisulfide]
- Methane Reduction (%) [1]: 30.5%

Molecule: O=[N+]([O-])O [Nitrate]
- Methane Reduction (%) (additive 0.35 wt % per 10 g of substrate): 14.0%
- Methane Reduction (%) [2]: 31.0%
- Methane Reduction (%) (additive 1.0 wt % per 10 g of substrate): 8.1%

Molecule: ((2R)-2-amino-3-[(S)-prop-2-enylsulfinyl] propanoic acid [Alliin]
- Methane Reduction (%) [2]: 21.9%
